In patent US6358885B1, “Substituted phenylheterocyclic herbicides” (Mississippi State University, priority 1992, dated 2002):

Experiments:
Assay in all cases: Test B preemergence/postemergence greenhouse plant response rating 0 to 10
wild oat = assay type: in vivo, Avena fatua; settings: 0 to 10 scale
In short: (§1)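 Both application timings were run together: seeds got compound preemergence, and established seedlings (two to eighteen cm) got it postemergence. Non-phytotoxic solvent carried the chemical. Ratings are visual, versus controls, at twelve to sixteen days.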

cotton = assay type: in vivo, Gossypium hirsutum; settings: 0 to 10 scale
In short: as §1

velvetleaf = assay type: in vivo, Abutilon theophrasti; settings: 0 to 10 scale
In short: as §1

cheatgrass = assay type: in vivo, Bromus secalinus; settings: 0 to 10 scale
In short: as §1

soybean = assay type: in vivo, Glycine max; settings: 0 to 10 scale
In short: as §1

bedstraw = assay type: in vivo, Galium aparine; settings: 0 to 10 scale
In short: as §1

barnyardgrass = assay type: in vivo, Echinochloa crus-galli; settings: 0 to 10 scale
In short: as §1

chickweed = assay type: in vivo, Stellaria media; settings: Rate 200 g/ha, 0 to 10 scale
In short: as §1

morningglory = assay type: in vivo, Ipomoea hederacea; settings: 0 to 10 scale
In short: as §1

corn = assay type: in vivo, Zea mays; settings: 0 to 10 scale
In short: as §1

giant foxtail = assay type: in vivo, Setaria faberii; settings: 0 to 10 scale
In short: as §1

crabgrass = assay type: in vivo, Digitaria spp.; settings: 0 to 10 scale
In short: as §1

blackgrass = assay type: in vivo, Alopecurus myosuroides; settings: 0 to 10 scale
In short: as §1

rice = assay type: in vivo, Oryza sativa; settings: 0 to 10 scale
In short: as §1

sorghum = assay type: in vivo, Sorghum bicolor; settings: 0 to 10 scale
In short: as §1

wheat = assay type: in vivo, Triticum aestivum; settings: 0 to 10 scale
In short: as §1

purple nutsedge = assay type: in vivo, Cyperus rotundus; settings: 0 to 10 scale
In short: as §1

cocklebur = assay type: in vivo, Xanthium pensylvanicum; settings: 0 to 10 scale
In short: as §1

lambsquarters = assay type: in vivo, Chenopodium album; settings: 0 to 10 scale
In short: as §1

wild buckwheat = assay type: in vivo, Polygonum convolvulus; settings: 0 to 10 scale
In short: as §1

barley = assay type: in vivo, Hordeum vulgare; settings: 0 to 10 scale
In short: as §1

sugar beet = assay type: in vivo, Beta vulgaris; settings: 0 to 10 scale
In short: as §1

rape = assay type: in vivo, Brassica napus; settings: 0 to 10 scale
In short: as §1

In the case of Clc1ccc(-c2nn3c(c2Cl)CCCC3)c(Cl)c1 [Compound 35], the “Plant response rating, Wild oat” value (wild oat; POSTEMERGENCE, Rate 50 g/ha) is reported as 3, the “Plant response rating, Wild oat” value (wild oat; PREEMERGENCE, Rate 50 g/ha) is reported as 0 and the “Plant response rating, Wild oat” value (wild oat; Rate 200 g/ha, POSTEMERGENCE) is reported as 4. For the same compound, the “Plant response rating, Cotton” value (cotton; POSTEMERGENCE, Rate 50 g/ha) was 9, the “Plant response rating, Cotton” value (cotton; POSTEMERGENCE, Rate 200 g/ha) was 10 and the “Plant response rating, Cotton” value (cotton; PREEMERGENCE, Rate 50 g/ha) was 0. For the same compound, the “Plant response rating, Cotton” value (cotton; Rate 200 g/ha, PREEMERGENCE) was 4, the “Plant response rating, Velvetleaf” value (velvetleaf; POSTEMERGENCE, Rate 50 g/ha) was 8 and the “Plant response rating, Velvetleaf” value (velvetleaf; PREEMERGENCE, Rate 50 g/ha) was 2. The “Plant response rating, Velvetleaf” value (velvetleaf; Rate 200 g/ha, POSTEMERGENCE) was 10, the “Plant response rating, Velvetleaf” value (velvetleaf; Rate 200 g/ha, PREEMERGENCE) was 10 and the “Plant response rating, Cheatgrass” value (cheatgrass; POSTEMERGENCE, Rate 50 g/ha) was 3. The “Plant response rating, Cheatgrass” value (cheatgrass; POSTEMERGENCE, Rate 200 g/ha) was 5, the “Plant response rating, Cheatgrass” value (cheatgrass; PREEMERGENCE, Rate 50 g/ha) was 1 and the “Plant response rating, Cheatgrass” value (cheatgrass; Rate 200 g/ha, PREEMERGENCE) was 5. For the same compound, the “Plant response rating, Soybean” value (soybean; POSTEMERGENCE, Rate 50 g/ha) was 4, the “Plant response rating, Soybean” value (soybean; PREEMERGENCE, Rate 50 g/ha) was 0 and the “Plant response rating, Soybean” value (soybean; Rate 200 g/ha, POSTEMERGENCE) was 5. The “Plant response rating, Soybean” value (soybean; Rate 200 g/ha, PREEMERGENCE) was 3, the “Plant response rating, Bedstraw” value (bedstraw; POSTEMERGENCE, Rate 50 g/ha) was 7 and the “Plant response rating, Bedstraw” value (bedstraw; POSTEMERGENCE, Rate 200 g/ha) was 9. For the same compound, the “Plant response rating, Bedstraw” value (bedstraw; PREEMERGENCE, Rate 50 g/ha) was 0, the “Plant response rating, Bedstraw” value (bedstraw; Rate 200 g/ha, PREEMERGENCE) was 8 and the “Plant response rating, Barnyardgrass” value (barnyardgrass; POSTEMERGENCE, Rate 50 g/ha) was 5. The “Plant response rating, Barnyardgrass” value (barnyardgrass; POSTEMERGENCE, Rate 200 g/ha) was 9, the “Plant response rating, Barnyardgrass” value (barnyardgrass; PREEMERGENCE, Rate 50 g/ha) was 1 and the “Plant response rating, Barnyardgrass” value (barnyardgrass; Rate 200 g/ha, PREEMERGENCE) was 7. The “Plant response rating, Chickweed” value (chickweed; POSTEMERGENCE) was 3, the “Plant response rating, Chickweed” value (chickweed; PREEMERGENCE) was 9 and the “Plant response rating, Morningglory” value (morningglory; POSTEMERGENCE, Rate 50 g/ha) was 5. The “Plant response rating, Morningglory” value (morningglory; PREEMERGENCE, Rate 50 g/ha) was 0, the “Plant response rating, Morningglory” value (morningglory; Rate 200 g/ha, POSTEMERGENCE) was 7 and the “Plant response rating, Morningglory” value (morningglory; Rate 200 g/ha, PREEMERGENCE) was 2. For the same compound, the “Plant response rating, Corn” value (corn; POSTEMERGENCE, Rate 50 g/ha) was 4, the “Plant response rating, Corn” value (corn; POSTEMERGENCE, Rate 200 g/ha) was 7 and the “Plant response rating, Corn” value (corn; PREEMERGENCE, Rate 50 g/ha) was 0. For the same compound, the “Plant response rating, Corn” value (corn; Rate 200 g/ha, PREEMERGENCE) was 3, the “Plant response rating, Giant foxtail” value (giant foxtail; POSTEMERGENCE, Rate 50 g/ha) was 4 and the “Plant response rating, Giant foxtail” value (giant foxtail; PREEMERGENCE, Rate 50 g/ha) was 2. For the same compound, the “Plant response rating, Giant foxtail” value (giant foxtail; Rate 200 g/ha, POSTEMERGENCE) was 7, the “Plant response rating, Giant foxtail” value (giant foxtail; Rate 200 g/ha, PREEMERGENCE) was 9 and the “Plant response rating, Crabgrass” value (crabgrass; POSTEMERGENCE, Rate 50 g/ha) was 3. For the same compound, the “Plant response rating, Crabgrass” value (crabgrass; POSTEMERGENCE, Rate 200 g/ha) was 6, the “Plant response rating, Crabgrass” value (crabgrass; PREEMERGENCE, Rate 50 g/ha) was 4 and the “Plant response rating, Crabgrass” value (crabgrass; Rate 200 g/ha, PREEMERGENCE) was 9. The “Plant response rating, Blackgrass” value (blackgrass; POSTEMERGENCE, Rate 50 g/ha) was 3, the “Plant response rating, Blackgrass” value (blackgrass; POSTEMERGENCE, Rate 200 g/ha) was 4 and the “Plant response rating, Blackgrass” value (blackgrass; PREEMERGENCE, Rate 50 g/ha) was 0. The “Plant response rating, Blackgrass” value (blackgrass; Rate 200 g/ha, PREEMERGENCE) was 4, the “Plant response rating, Rice” value (rice; POSTEMERGENCE, Rate 50 g/ha) was 5 and the “Plant response rating, Rice” value (rice; PREEMERGENCE, Rate 50 g/ha) was 0. The “Plant response rating, Rice” value (rice; Rate 200 g/ha, POSTEMERGENCE) was 6, the “Plant response rating, Rice” value (rice; Rate 200 g/ha, PREEMERGENCE) was 2 and the “Plant response rating, Sorghum” value (sorghum; POSTEMERGENCE, Rate 50 g/ha) was 5. For the same compound, the “Plant response rating, Sorghum” value (sorghum; PREEMERGENCE, Rate 50 g/ha) was 0, the “Plant response rating, Sorghum” value (sorghum; Rate 200 g/ha, POSTEMERGENCE) was 6 and the “Plant response rating, Sorghum” value (sorghum; Rate 200 g/ha, PREEMERGENCE) was 3. For the same compound, the “Plant response rating, Wheat” value (wheat; POSTEMERGENCE, Rate 50 g/ha) was 2, the “Plant response rating, Wheat” value (wheat; PREEMERGENCE, Rate 50 g/ha) was 0 and the “Plant response rating, Wheat” value (wheat; Rate 200 g/ha, POSTEMERGENCE) was 5. The “Plant response rating, Wheat” value (wheat; Rate 200 g/ha, PREEMERGENCE) was 7, the “Plant response rating, Nutsedge” value (purple nutsedge; POSTEMERGENCE, Rate 50 g/ha) was 1 and the “Plant response rating, Nutsedge” value (purple nutsedge; PREEMERGENCE, Rate 50 g/ha) was 0. The “Plant response rating, Nutsedge” value (purple nutsedge; Rate 200 g/ha, POSTEMERGENCE) was 3, the “Plant response rating, Nutsedge” value (purple nutsedge; Rate 200 g/ha, PREEMERGENCE) was 2 and the “Plant response rating, Cocklebur” value (cocklebur; POSTEMERGENCE, Rate 50 g/ha) was 5. The “Plant response rating, Cocklebur” value (cocklebur; POSTEMERGENCE, Rate 200 g/ha) was 7, the “Plant response rating, Cocklebur” value (cocklebur; PREEMERGENCE, Rate 50 g/ha) was 0 and the “Plant response rating, Cocklebur” value (cocklebur; Rate 200 g/ha, PREEMERGENCE) was 2. The “Plant response rating, Lambsquarter” value (lambsquarters; POSTEMERGENCE, Rate 50 g/ha) was 9, the “Plant response rating, Lambsquarter” value (lambsquarters; PREEMERGENCE, Rate 50 g/ha) was 10 and the “Plant response rating, Lambsquarter” value (lambsquarters; Rate 200 g/ha, POSTEMERGENCE) was 10. The “Plant response rating, Lambsquarter” value (lambsquarters; Rate 200 g/ha, PREEMERGENCE) was 10, the “Plant response rating, Wild buckwheat” value (wild buckwheat; POSTEMERGENCE, Rate 50 g/ha) was 6 and the “Plant response rating, Wild buckwheat” value (wild buckwheat; PREEMERGENCE, Rate 50 g/ha) was 0. For the same compound, the “Plant response rating, Wild buckwheat” value (wild buckwheat; Rate 200 g/ha, POSTEMERGENCE) was 10, the “Plant response rating, Wild buckwheat” value (wild buckwheat; Rate 200 g/ha, PREEMERGENCE) was 1 and the “Plant response rating, Barley” value (barley; POSTEMERGENCE, Rate 50 g/ha) was 2. The “Plant response rating, Barley” value (barley; POSTEMERGENCE, Rate 200 g/ha) was 4, the “Plant response rating, Barley” value (barley; PREEMERGENCE, Rate 50 g/ha) was 0 and the “Plant response rating, Barley” value (barley; Rate 200 g/ha, PREEMERGENCE) was 0. The “Plant response rating, Sugar beet” value (sugar beet; POSTEMERGENCE, Rate 50 g/ha) was 9, the “Plant response rating, Sugar beet” value (sugar beet; PREEMERGENCE, Rate 50 g/ha) was 0 and the “Plant response rating, Sugar beet” value (sugar beet; Rate 200 g/ha, POSTEMERGENCE) was 10. The “Plant response rating, Sugar beet” value (sugar beet; Rate 200 g/ha, PREEMERGENCE) was 4, the “Plant response rating, Rape” value (rape; POSTEMERGENCE, Rate 50 g/ha) was 6 and the “Plant response rating, Rape” value (rape; PREEMERGENCE, Rate 50 g/ha) was 0. For the same compound, the “Plant response rating, Rape” value (rape; Rate 200 g/ha, POSTEMERGENCE) was 9.
